Source: patent publication US20100221773A1, “Nucleic Acids Encoding a Functional Mammalin Purinoreceptor, P2X3, Methods of Production and Use Thereof” (priority 2005, published 2010)

Tests used:
rhesus P2X3 receptor [1] = target: T1, rhesus P2X3 receptor (Macaca mulatta, UniProt A0A1D5QSM7); assay: Intracellular calcium measurement (FLIPR, Fluo-3) to assess antagonist affinity; assay type: cell-based; settings: for IC50: FLIPR, Flp-in T-Rex-293 cells stably expressing rhesus P2X3, antagonist 10 min before agonist αβ-meATP, read-out: IC50, block of αβ-meATP mediated increase in intracellular calcium
Method: (§1) Generation of a Rhesus P2X3 Stable Cell Line—Rhesus P2X3 receptor cDNA was subcloned as a 5′HindIII and 3′XhoI fragment into the expression vector pcDNA5/FRT/TO (Invitrogen). Five micrograms of the rhesus P2X3 expression construct was transfected using Lipofectamine 2000 (Invitrogen) into Flp-in T-Rex—293 cells (Invitrogen) according to the manufacturer's directions. Cells positive for flp-mediated recombination of rhesus P2X3 were selected using 300 μg/ml hygromycin. The stable rhesus P2X3 cell line was propagated in DMEM, 10% FBS, 150 μg/ml hygromycin, 15 μg/ml blasticidin, and 100 units/ml penicillin and 100 μg/ml streptomycin, and maintained at 37° and 95% humidity. Cells were subcultured by treatment with 0.25% trypsin with 0.1% EDTA in HBSS.
Intracellular Calcium Measurement to Assess Antagonist Affinity—A fluorescent imaging plate reader (FLIPR; Molecular Devices) was used to monitor intracellular calcium levels using the calcium-chelating dye Fluo-3 (Molecular Probes). Cells expressing the rhesus P2X3 receptor were plated in the presence of 0.5 to 1 μg/ml doxycycline at a density of 30,000 cells/well in 384-well black-walled plates approximately 20 hours before beginning the assay. Cells were washed with HBSS and dye-loaded in HBSS, 2 mM CaCl2, 0.1% BSA, 0.25 mM probenecid, and 4 μM Fluo-3 for 60 min in the dark at room temperature. Prior to compound additions cells were washed with HBSS. Antagonist affinity was determined by the ability of these compounds to inhibit increases of intracellular calcium elicited by the P2X3 agonist αβ-meATP. Ten minutes prior to adding agonist, the antagonist was added and allowed to incubate at room temperature. Following agonist addition fluorescence data was collected at 5 sec intervals and analyzed based on the increase in peak relative fluorescence units (RFU) compared to the basal fluorescence. Antagonist dose-response data expressed as a response ratio (max RFU/min RFU) were analyzed using GraphPad Prism.

rhesus P2X3 receptor [2] = target: T1, rhesus P2X3 receptor; assay: In vitro electrophysiological assay (whole-cell patch clamp, PatchXpress); assay type: cell-based; settings: for IC50: 100 μM CTP, antagonist preincubation 2 min, whole-cell patch clamp, read-out: IC50, inhibition of CTP-induced currents
Method: as §1
In vitro Electrophysiological Assay—Cells expressing rhesus P2X3 receptor were grown to a confluence of 65-85% and induced with 1 μg/ml doxycycline 20 to 32 hours prior to assay. After induction the cells were dissociated with trypsin, centrifuged, and resuspended in bath solution at a cell density of 6×10^6 cells/ml and loaded onto PatchXpress. The bath solution contained 150 mM NaCl, 4 mM KCl, 2 mM CaCl2, 1.2 mM MgCl2, 10 mM HEPES, and 11.1 mM glucose, at pH 7.2. The intracellular solution contained 140 mM K-aspartate, 20 mM NaCl, 5 mM HEPES, 10 mM EGTA, at pH 7.2. Agonist stock solutions were prepared in H2O and diluted in bath solution prior to use. All antagonists were prepared as 10 mM stock solutions in DMSO and diluted in bath solution prior to use. All experiments were performed on cells under the whole-cell patch clamp configuration at room temperature. Up to 16 individual cells could be patch clamped simultaneously on the PatchXpress instrument. A baseline response was established by repeated CTP (100 μM; for 2 sec.) followed by antagonist incubation for 2 min. in the absence of CTP. After antagonist preincubation 100 μM CTP and antagonist were co-administered to determine the inhibitory effect of the antagonist. These steps were then repeated on the same cell with a range of concentrations of the antagonist. A maximum of five concentrations of antagonist were tested on any individual cell. The control P2X3 current amplitude (IP2X3-(control)) was taken as an average of the peak current amplitude from the last two agonist additions prior to incubation with an antagonist. The peak P2X3 current amplitude in the presence of an antagonist (IP2X3-(drug)) was used to calculate the inhibitory effect at each concentration of the antagonist according to the following equation:
% inhibition of P2X3=100*(IP2X3-(control)−IP2X3-(drug))/IP2X3-(control)
Each concentration of an antagonist was tested on at least three independent cells. […]

Compound	blockade of αβ-meATP activated Ca2+ influx (rhesus P2X3 receptor [1]; FIG. 1, cells incubated with PPADS for 10 min prior to agonist, FLIPR traces)	IC50 (rhesus P2X3 receptor [1])	IC50 (rhesus P2X3 receptor [2]; FIG. 3)	rhesus P2X3 inward current elicited by CTP in the presence of antagonist (rhesus P2X3 receptor [2]; FIG. 3A, 3 μM PPADS, 100 mM CTP (control) as printed)	EC50 (rhesus P2X3 receptor [2]; patch-clamp, rhesus P2X3 stable cell line, FIG. 2, read-out: EC50, inward current evoked by agonist)	IC50 (rhesus P2X3 receptor [2])
Cc1nc(N=Nc2ccc(S(=O)(=O)O)cc2S(=O)(=O)O)c(COP(=O)(O)O)c(C=O)c1O [PPADS, pyridoxal-phoshpate-6-azophenyl-2′,4′-disulfonic acid]	dose-dependent blockade	2900 nM	2200 nM	diminished		
Nc1ncnc2c1ncn2[C@@H]1O[C@H](COP(=O)(O)CP(=O)(O)OP(=O)(O)O)[C@@H](O)[C@H]1O [αβ-meATP]					1000 nM	
Cc1ccc(C(=O)Nc2ccc(S(=O)(=O)O)c3cc(S(=O)(=O)O)cc(S(=O)(=O)O)c23)cc1NC(=O)c1cccc(NC(=O)Nc2cccc(C(=O)Nc3cc(C(=O)Nc4ccc(S(=O)(=O)O)c5cc(S(=O)(=O)O)cc(S(=O)(=O)O)c45)ccc3C)c2)c1 [suramin]		1500 nM				382 nM
